ChEMBL document CHEMBL2401627, “Synthesis of some novel chalcones, flavanones and flavones and evaluation of their anti-inflammatory activity” (Eur J Med Chem, 2013)

Legend:
Rattus norvegicus [1] = assay: Antiinflammatory activity in Wistar rat assessed as inhibition of carrageenan-induced hind paw oedema at 20 mg/kg, po administered 30 mins before carrageenan challenge measured after 3 hrs by plethysmometer relative to control; assay type: functional
Rattus norvegicus [2] = assay: Antiinflammatory activity in Wistar rat assessed as inhibition of carrageenan-induced hind paw oedema at 20 mg/kg, po administered 30 mins before carrageenan challenge measured after 5 hrs by plethysmometer relative to control; assay type: functional
Rattus norvegicus [3] = assay: Gastrointestinal toxicity in Wistar rat assessed as ulcerogenic index at 60 mg/kg, po after 6 hrs relative to control; assay type: organism-based; set-up: dose 60 mg/kg, route oral; details: in vivo
RAW264.7 [4] = assay: Antiinflammatory activity in mouse RAW264.7 cells assessed as inhibition of LPS-induced TNFalpha production at 5 uM treated 30 mins before LPS challenge measured after 2 hrs by ELISA relative to control; assay type: functional
RAW264.7 [5] = assay: Antiinflammatory activity in mouse RAW264.7 cells assessed as inhibition of LPS-induced TNFalpha production at 5 uM treated 30 mins before LPS challenge measured after 3 hrs by ELISA relative to control; assay type: functional
RAW264.7 [6] = assay: Antiinflammatory activity in mouse RAW264.7 cells assessed as inhibition of LPS-induced TNFalpha production at 10 uM treated 30 mins before LPS challenge measured after 1 hr by ELISA relative to control; assay type: functional
RAW264.7 [7] = assay: Antiinflammatory activity in mouse RAW264.7 cells assessed as inhibition of LPS-induced TNFalpha production at 10 uM treated 30 mins before LPS challenge measured after 3 hrs by ELISA relative to control; assay type: functional
[8] = molecular target: T1, Prostaglandin G/H synthase 1 (Ovis aries, UniProt P05979); assay: Inhibition of ovine COX1
T1 sequence (P05979 whole entry): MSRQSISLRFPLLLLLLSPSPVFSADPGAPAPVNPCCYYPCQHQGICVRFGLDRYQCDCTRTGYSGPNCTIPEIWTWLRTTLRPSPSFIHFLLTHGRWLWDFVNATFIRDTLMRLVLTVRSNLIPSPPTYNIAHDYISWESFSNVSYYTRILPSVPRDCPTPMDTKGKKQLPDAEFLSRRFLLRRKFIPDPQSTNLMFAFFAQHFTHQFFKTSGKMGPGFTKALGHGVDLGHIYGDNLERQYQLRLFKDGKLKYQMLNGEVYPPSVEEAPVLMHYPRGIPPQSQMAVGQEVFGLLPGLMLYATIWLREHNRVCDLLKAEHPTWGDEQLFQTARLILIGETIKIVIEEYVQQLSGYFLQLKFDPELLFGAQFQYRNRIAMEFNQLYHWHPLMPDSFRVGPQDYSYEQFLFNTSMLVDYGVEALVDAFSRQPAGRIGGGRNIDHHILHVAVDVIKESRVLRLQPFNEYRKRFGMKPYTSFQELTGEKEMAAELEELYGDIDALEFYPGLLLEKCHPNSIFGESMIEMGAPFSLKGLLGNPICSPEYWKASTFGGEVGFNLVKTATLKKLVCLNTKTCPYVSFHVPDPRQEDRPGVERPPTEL

RAW264.7 [9] = assay: Antiinflammatory activity in mouse RAW264.7 cells assessed as inhibition of LPS-induced TNFalpha production at 10 uM treated 30 mins before LPS challenge measured after 2 hrs by ELISA relative to control; assay type: functional
RAW264.7 [10] = assay: Antiinflammatory activity in mouse RAW264.7 cells assessed as inhibition of LPS-induced TNFalpha production at 5 uM treated 30 mins before LPS challenge measured after 1 hr by ELISA relative to control; assay type: functional

In the case of `COc1cc(/C=C/C(=O)c2c(OC)cc(C)c(Cl)c2C)ccc1O`, the inhibition in vivo at 20 mg/kg (Rattus norvegicus [1]) is reported as 22.2% and the inhibition in vivo at 20 mg/kg (Rattus norvegicus [2]) is reported as 25%.
In the case of `Cc1cc(O)c(C(=O)/C=C/c2ccccc2)c(C)c1Cl`, the inhibition in vivo at 20 mg/kg (Rattus norvegicus [1]) is reported as 70%, the inhibition in vivo at 20 mg/kg (Rattus norvegicus [2]) is reported as 82% and the UI (Rattus norvegicus [3]) is reported as 0.4 mm.
`COc1ccc(/C=C/C(=O)c2c(O)cc(C)c(Cl)c2C)cc1` showed an inhibition in vivo at 20 mg/kg (Rattus norvegicus [1]) of 50% and an inhibition in vivo at 20 mg/kg (Rattus norvegicus [2]) of 55%.
In the case of `Cc1cc(O)c(C(=O)/C=C/c2ccc(Cl)cc2)c(C)c1Cl`, the inhibition in vivo at 20 mg/kg (Rattus norvegicus [1]) is reported as 41.6% and the inhibition in vivo at 20 mg/kg (Rattus norvegicus [2]) is reported as 36%.
`Cc1cc(O)c(C(=O)/C=C/c2ccccc2Cl)c(C)c1Cl` gave an inhibition in vivo at 20 mg/kg (Rattus norvegicus [1]) of 33% and an inhibition in vivo at 20 mg/kg (Rattus norvegicus [2]) of 70%.
`COc1ccc(/C=C/C(=O)c2c(O)cc(C)c(Cl)c2C)cc1OC` gave an inhibition in vivo at 20 mg/kg (Rattus norvegicus [1]) of 71%, an inhibition in vivo at 20 mg/kg (Rattus norvegicus [2]) of 82% and a UI (Rattus norvegicus [3]) of 0.6 mm.
`COc1cc(/C=C/C(=O)c2c(O)cc(C)c(Cl)c2C)cc(OC)c1OC` was tested, and the Activity (RAW264.7 [4]) was 79.77 pg/mL, the Activity (RAW264.7 [5]) was 104.78 pg/mL and the inhibition in vivo at 20 mg/kg (Rattus norvegicus [1]) was 91.7%. For the same compound, the Activity (RAW264.7 [6]) was 34.99 pg/mL, the inhibition in vivo at 20 mg/kg (Rattus norvegicus [2]) was 90.6% and the UI (Rattus norvegicus [3]) was 0.4 mm. The Activity (RAW264.7 [7]) was 88.83 pg/mL, the IC50 [8] was 87.5 µM and the Activity (RAW264.7 [9]) was 53.77 pg/mL. The Activity (RAW264.7 [10]) was 49.42 pg/mL.
Work on `Cc1cc(O)c(C(=O)/C=C/c2cccc(O)c2)c(C)c1Cl` yielded an inhibition in vivo at 20 mg/kg (Rattus norvegicus [1]) of 83%, an inhibition in vivo at 20 mg/kg (Rattus norvegicus [2]) of 71% and a UI (Rattus norvegicus [3]) of 0.4 mm.
In the case of `Cc1cc(O)c(C(=O)/C=C/c2ccccc2[N+](=O)[O-])c(C)c1Cl`, the inhibition in vivo at 20 mg/kg (Rattus norvegicus [1]) is reported as 26.3% and the inhibition in vivo at 20 mg/kg (Rattus norvegicus [2]) is reported as 14.3%.
With `COc1cc(C)c(Cl)c(C)c1C(=O)/C=C/c1ccccc1` the inhibition in vivo at 20 mg/kg (Rattus norvegicus [1]) was 69.2% and the inhibition in vivo at 20 mg/kg (Rattus norvegicus [2]) was 75%.
`COc1ccc(/C=C/C(=O)c2c(OC)cc(C)c(Cl)c2C)cc1` was tested, and the inhibition in vivo at 20 mg/kg (Rattus norvegicus [1]) was 16.7% and the inhibition in vivo at 20 mg/kg (Rattus norvegicus [2]) was 12.5%.
For `COc1cc(C)c(Cl)c(C)c1C(=O)/C=C/c1ccc(Cl)cc1`, the inhibition in vivo at 20 mg/kg (Rattus norvegicus [1]) was 22.2% and the inhibition in vivo at 20 mg/kg (Rattus norvegicus [2]) was 12.5%.
For `COc1cc(C)c(Cl)c(C)c1C(=O)/C=C/c1ccccc1Cl`, the inhibition in vivo at 20 mg/kg (Rattus norvegicus [1]) was 27.8% and the inhibition in vivo at 20 mg/kg (Rattus norvegicus [2]) was 12.5%.
With `COc1ccc(/C=C/C(=O)c2c(OC)cc(C)c(Cl)c2C)cc1OC` the inhibition in vivo at 20 mg/kg (Rattus norvegicus [1]) was 81%, the inhibition in vivo at 20 mg/kg (Rattus norvegicus [2]) was 62% and the UI (Rattus norvegicus [3]) was 0.16 mm.
Compound `COc1cc(/C=C/C(=O)c2c(OC)cc(C)c(Cl)c2C)cc(OC)c1OC` has an inhibition in vivo at 20 mg/kg (Rattus norvegicus [1]) of 76.9%, an inhibition in vivo at 20 mg/kg (Rattus norvegicus [2]) of 62.5% and a UI (Rattus norvegicus [3]) of 0.16 mm.
For `COc1cc(C)c(Cl)c(C)c1C(=O)/C=C/c1cccc(O)c1`, the inhibition in vivo at 20 mg/kg (Rattus norvegicus [1]) was 80.8%, the inhibition in vivo at 20 mg/kg (Rattus norvegicus [2]) was 75% and the UI (Rattus norvegicus [3]) was 0.33 mm.
`COc1cc(C)c(Cl)c(C)c1C(=O)/C=C/c1ccccc1O` gave an inhibition in vivo at 20 mg/kg (Rattus norvegicus [1]) of 33.3% and an inhibition in vivo at 20 mg/kg (Rattus norvegicus [2]) of 50%.
In the case of `COc1cc(C)c(Cl)c(C)c1C(=O)/C=C/c1cccc([N+](=O)[O-])c1`, the inhibition in vivo at 20 mg/kg (Rattus norvegicus [1]) is reported as 68.2% and the inhibition in vivo at 20 mg/kg (Rattus norvegicus [2]) is reported as 22.2%.
`COc1cc(C)c(Cl)c(C)c1C(=O)/C=C/c1ccc(N(C)C)cc1` gave an inhibition in vivo at 20 mg/kg (Rattus norvegicus [1]) of 22.2% and an inhibition in vivo at 20 mg/kg (Rattus norvegicus [2]) of 18.8%.
`COc1cc(C)c(Cl)c(C)c1C(=O)/C=C/c1ccccc1[N+](=O)[O-]` was tested, and the inhibition in vivo at 20 mg/kg (Rattus norvegicus [1]) was 63.6% and the inhibition in vivo at 20 mg/kg (Rattus norvegicus [2]) was 66.7%.
In the case of `Cc1cc2c(c(C)c1Cl)C(=O)CC(c1ccccc1)O2` (stereo not drawn), the inhibition in vivo at 20 mg/kg (Rattus norvegicus [1]) is reported as 43.3% and the inhibition in vivo at 20 mg/kg (Rattus norvegicus [2]) is reported as 27.7%.
Work on `COc1ccc(C2CC(=O)c3c(cc(C)c(Cl)c3C)O2)cc1` (stereo not drawn) yielded an inhibition in vivo at 20 mg/kg (Rattus norvegicus [1]) of 51.1% and an inhibition in vivo at 20 mg/kg (Rattus norvegicus [2]) of 70%.
Work on `Cc1cc2c(c(C)c1Cl)C(=O)CC(c1ccc(Cl)cc1)O2` (stereo not drawn) yielded an inhibition in vivo at 20 mg/kg (Rattus norvegicus [1]) of 37.8% and an inhibition in vivo at 20 mg/kg (Rattus norvegicus [2]) of 70%.
Compound `Cc1cc2c(c(C)c1Cl)C(=O)CC(c1ccccc1Cl)O2` (stereo not drawn) has an inhibition in vivo at 20 mg/kg (Rattus norvegicus [1]) of 22.2% and an inhibition in vivo at 20 mg/kg (Rattus norvegicus [2]) of 56%.
`COc1ccc(C2CC(=O)c3c(cc(C)c(Cl)c3C)O2)cc1OC` (stereo not drawn) gave an inhibition in vivo at 20 mg/kg (Rattus norvegicus [1]) of 48.5% and an inhibition in vivo at 20 mg/kg (Rattus norvegicus [2]) of 41.7%.
`COc1cc(C2CC(=O)c3c(cc(C)c(Cl)c3C)O2)cc(OC)c1OC` (stereo not drawn) was tested, and the inhibition in vivo at 20 mg/kg (Rattus norvegicus [1]) was 48.5% and the inhibition in vivo at 20 mg/kg (Rattus norvegicus [2]) was 44.4%.
Work on `Cc1cc2c(c(C)c1Cl)C(=O)CC(c1cccc(O)c1)O2` (stereo not drawn) yielded an inhibition in vivo at 20 mg/kg (Rattus norvegicus [1]) of 46.4% and an inhibition in vivo at 20 mg/kg (Rattus norvegicus [2]) of 44.4%.
In the case of `Cc1cc2c(c(C)c1Cl)C(=O)CC(c1ccccc1O)O2` (stereo not drawn), the inhibition in vivo at 20 mg/kg (Rattus norvegicus [1]) is reported as 58.8% and the inhibition in vivo at 20 mg/kg (Rattus norvegicus [2]) is reported as 75%.
In the case of `Cc1cc2c(c(C)c1Cl)C(=O)CC(c1cccc([N+](=O)[O-])c1)O2` (stereo not drawn), the inhibition in vivo at 20 mg/kg (Rattus norvegicus [1]) is reported as 53.6% and the inhibition in vivo at 20 mg/kg (Rattus norvegicus [2]) is reported as 51.4%.
Compound `Cc1cc2c(c(C)c1Cl)C(=O)CC(c1ccc(N(C)C)cc1)O2` (stereo not drawn) has an inhibition in vivo at 20 mg/kg (Rattus norvegicus [1]) of 82%, an inhibition in vivo at 20 mg/kg (Rattus norvegicus [2]) of 81% and a UI (Rattus norvegicus [3]) of 0 mm.
`COc1cc(C2CC(=O)c3c(cc(C)c(Cl)c3C)O2)ccc1O` (stereo not drawn) showed an inhibition in vivo at 20 mg/kg (Rattus norvegicus [1]) of 44.4% and an inhibition in vivo at 20 mg/kg (Rattus norvegicus [2]) of 66%.
Compound `Cc1cc2oc(-c3ccccc3)cc(=O)c2c(C)c1Cl` has an inhibition in vivo at 20 mg/kg (Rattus norvegicus [1]) of 26.3% and an inhibition in vivo at 20 mg/kg (Rattus norvegicus [2]) of 16.2%.
`COc1ccc(-c2cc(=O)c3c(C)c(Cl)c(C)cc3o2)cc1` gave an inhibition in vivo at 20 mg/kg (Rattus norvegicus [1]) of 58% and an inhibition in vivo at 20 mg/kg (Rattus norvegicus [2]) of 28.6%.
`Cc1cc2oc(-c3ccc(Cl)cc3)cc(=O)c2c(C)c1Cl` showed an inhibition in vivo at 20 mg/kg (Rattus norvegicus [1]) of 26.1% and an inhibition in vivo at 20 mg/kg (Rattus norvegicus [2]) of 22.9%.
For `Cc1cc2oc(-c3ccccc3Cl)cc(=O)c2c(C)c1Cl`, the inhibition in vivo at 20 mg/kg (Rattus norvegicus [1]) was 36.8% and the inhibition in vivo at 20 mg/kg (Rattus norvegicus [2]) was 57.1%.
Work on `COc1ccc(-c2cc(=O)c3c(C)c(Cl)c(C)cc3o2)cc1OC` yielded an inhibition in vivo at 20 mg/kg (Rattus norvegicus [1]) of 43.1% and an inhibition in vivo at 20 mg/kg (Rattus norvegicus [2]) of 22.9%.
`COc1cc(-c2cc(=O)c3c(C)c(Cl)c(C)cc3o2)cc(OC)c1OC` gave an inhibition in vivo at 20 mg/kg (Rattus norvegicus [1]) of 68.4%, an inhibition in vivo at 20 mg/kg (Rattus norvegicus [2]) of 73.3% and a UI (Rattus norvegicus [3]) of 0 mm.
`COc1ccc2c(c1)c(CC(=O)O)c(C)n2C(=O)c1ccc(Cl)cc1` [INDOMETHACIN] was tested, and the inhibition in vivo at 20 mg/kg (Rattus norvegicus [1]) was 67%, the inhibition in vivo at 20 mg/kg (Rattus norvegicus [2]) was 86% and the UI (Rattus norvegicus [3]) was 1.5 mm.
